The Ki is a measure of affinity in units of concentration, obtained from inhibition or displacement.

Read-outs that look alike come from different tables or passages of the source.

The test system of assay [1] is BDL-induced hepatic fibrosis. In words: bile duct ligation. The format is in vivo. The settings on record: WT and SOD1mu mice, 60 mg/kg daily from day 11.
The subject of the next assay is colI-GFP HSCs. In words: collagen promoter-driven GFP expression in HSCs. The format is cell-based, mouse. Conditions: SOD1mu and WT HSCs, Ang II 10^−6 M, 20 μM, 24 hours.
In the next assay the target is xanthine oxidase (Homo sapiens, UniProt P47989). In words: xanthine oxidase assay, same ROS read-out as NOX assays. It counts as biochemical.
The test system of assay [2] is HSCs. Put plainly: gene expression in Ang II stimulated HSCs. It counts as cell-based, mouse. Conditions: Ang II 10^−6 M, 20 μM, 24 hours.
In the next assay the test system is Rac1. Put plainly: Rac1 G-LISA activation assay in HSCs. It counts as cell-based, mouse. Conditions: WT and SOD1mu HSCs, 20 μM, 24 hours.
The test system of assay [3] is CCl4-induced liver fibrosis. In words: CCl4 model of liver fibrosis. The format is in vivo, mice.
For another assay, the system named is activated HSCs. Put plainly: gene expression in culture-activated primary HSCs. It counts as cell-based, mouse. The settings on record: 20 μM.
The subject of assay [4] is NOX2-driven neutrophil oxidative burst. Put plainly: neutrophil oxidative burst by flow cytometry in human whole blood. The format is cell-based. The settings on record: up to 100uM.
For assay [5], the system named is HSCs. Put plainly: ROS generation in DCFDA-loaded HSCs. It counts as cell-based, mouse. Conditions: SOD1mu and WT HSCs, Ang II 10^−6 M, 20 μM.
A further assay relates to 170 different proteins. In words: in vitro off-target pharmacological profile. The settings on record: tested at 10 μM.
For a further assay, the target named is T1, human Nox1 (Homo sapiens, UniProt Q9Y5S8).
T1 sequence (Q9Y5S8 1-564): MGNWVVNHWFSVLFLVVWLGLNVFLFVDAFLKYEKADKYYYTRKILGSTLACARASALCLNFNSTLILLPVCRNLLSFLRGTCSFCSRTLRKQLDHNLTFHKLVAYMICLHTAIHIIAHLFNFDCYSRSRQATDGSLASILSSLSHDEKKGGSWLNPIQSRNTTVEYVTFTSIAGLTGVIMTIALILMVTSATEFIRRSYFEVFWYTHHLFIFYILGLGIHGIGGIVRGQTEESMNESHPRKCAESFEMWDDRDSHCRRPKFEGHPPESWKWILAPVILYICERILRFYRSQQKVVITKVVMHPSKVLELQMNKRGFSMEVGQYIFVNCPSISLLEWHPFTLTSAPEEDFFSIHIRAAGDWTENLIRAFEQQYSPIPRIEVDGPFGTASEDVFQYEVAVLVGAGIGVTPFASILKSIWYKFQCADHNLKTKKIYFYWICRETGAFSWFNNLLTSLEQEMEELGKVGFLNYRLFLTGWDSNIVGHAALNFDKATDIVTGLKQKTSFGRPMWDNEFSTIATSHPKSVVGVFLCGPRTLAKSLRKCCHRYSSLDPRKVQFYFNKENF
T1 sequence (P13498 2-195 partner limits assumed): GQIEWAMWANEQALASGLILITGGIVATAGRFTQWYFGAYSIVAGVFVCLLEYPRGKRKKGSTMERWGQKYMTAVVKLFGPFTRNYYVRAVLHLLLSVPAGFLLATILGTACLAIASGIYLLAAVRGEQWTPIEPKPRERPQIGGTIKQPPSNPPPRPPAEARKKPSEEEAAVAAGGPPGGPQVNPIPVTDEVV
The format is biochemical.

The target in a further assay is T2, human Nox4 (Homo sapiens, UniProt Q9NPH5).
T2 sequence (Q9NPH5 1-578): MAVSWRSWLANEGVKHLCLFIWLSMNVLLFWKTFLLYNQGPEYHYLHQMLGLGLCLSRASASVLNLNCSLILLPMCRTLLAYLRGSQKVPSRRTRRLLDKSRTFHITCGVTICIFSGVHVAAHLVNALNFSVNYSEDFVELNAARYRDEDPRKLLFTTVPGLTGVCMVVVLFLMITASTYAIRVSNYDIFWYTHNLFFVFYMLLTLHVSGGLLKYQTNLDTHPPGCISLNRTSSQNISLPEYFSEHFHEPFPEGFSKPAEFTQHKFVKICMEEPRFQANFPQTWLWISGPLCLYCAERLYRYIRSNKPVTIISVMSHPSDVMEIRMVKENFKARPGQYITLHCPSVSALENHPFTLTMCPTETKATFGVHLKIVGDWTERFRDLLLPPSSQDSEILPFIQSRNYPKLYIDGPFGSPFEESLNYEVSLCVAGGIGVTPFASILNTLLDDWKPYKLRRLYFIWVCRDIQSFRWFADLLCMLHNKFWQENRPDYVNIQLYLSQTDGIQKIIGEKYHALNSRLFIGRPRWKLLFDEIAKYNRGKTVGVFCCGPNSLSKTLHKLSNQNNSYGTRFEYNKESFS
T2 sequence (P13498 2-195 partner limits assumed): T1 sequence (P13498 2-195 partner limits assumed)
The format is biochemical. The settings on record: read-out: Ki on Nox4; cell free membrane assay.

[6] abbreviates: CCl4 treated SOD1mu mice, 60 mg/kg daily.
The mark [7] stands for this setting: SOD1mu and WT mice, 60 mg/kg daily.

Sequence of xanthine oxidase (P47989 whole entry, species assumed): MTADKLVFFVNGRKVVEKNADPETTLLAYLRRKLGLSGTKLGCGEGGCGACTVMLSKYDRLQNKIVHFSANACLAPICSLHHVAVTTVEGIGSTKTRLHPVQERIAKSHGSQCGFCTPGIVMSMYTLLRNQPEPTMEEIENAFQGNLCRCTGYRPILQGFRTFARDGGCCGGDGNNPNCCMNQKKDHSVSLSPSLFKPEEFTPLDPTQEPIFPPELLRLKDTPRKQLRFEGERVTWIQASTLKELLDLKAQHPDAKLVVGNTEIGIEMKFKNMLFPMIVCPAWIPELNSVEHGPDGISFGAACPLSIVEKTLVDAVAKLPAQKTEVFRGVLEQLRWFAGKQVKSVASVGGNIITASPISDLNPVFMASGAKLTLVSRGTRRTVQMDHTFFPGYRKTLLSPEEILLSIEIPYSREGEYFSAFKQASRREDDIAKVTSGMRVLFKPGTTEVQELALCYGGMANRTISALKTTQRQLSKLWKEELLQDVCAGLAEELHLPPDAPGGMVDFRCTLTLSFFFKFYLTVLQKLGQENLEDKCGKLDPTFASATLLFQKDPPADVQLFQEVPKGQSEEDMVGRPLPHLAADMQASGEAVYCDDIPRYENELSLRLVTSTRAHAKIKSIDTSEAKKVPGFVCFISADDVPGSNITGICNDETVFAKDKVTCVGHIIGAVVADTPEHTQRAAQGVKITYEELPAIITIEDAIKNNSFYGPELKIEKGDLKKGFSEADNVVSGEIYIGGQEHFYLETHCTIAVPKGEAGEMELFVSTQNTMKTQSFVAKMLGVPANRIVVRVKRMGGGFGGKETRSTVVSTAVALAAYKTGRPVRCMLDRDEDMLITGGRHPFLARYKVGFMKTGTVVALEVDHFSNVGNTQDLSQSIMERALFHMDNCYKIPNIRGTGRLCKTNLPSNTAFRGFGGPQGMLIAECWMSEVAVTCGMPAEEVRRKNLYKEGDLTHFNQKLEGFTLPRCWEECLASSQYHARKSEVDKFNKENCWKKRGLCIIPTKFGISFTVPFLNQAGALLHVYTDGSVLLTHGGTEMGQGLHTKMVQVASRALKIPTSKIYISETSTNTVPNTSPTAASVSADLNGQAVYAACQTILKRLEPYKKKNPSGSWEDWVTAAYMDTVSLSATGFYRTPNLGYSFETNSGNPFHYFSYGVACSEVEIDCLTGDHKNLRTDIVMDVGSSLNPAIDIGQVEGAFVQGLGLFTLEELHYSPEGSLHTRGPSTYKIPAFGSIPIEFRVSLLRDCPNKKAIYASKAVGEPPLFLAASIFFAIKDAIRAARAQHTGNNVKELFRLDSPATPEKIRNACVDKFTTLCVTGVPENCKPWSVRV

On to `CN(C)c1cccc(-c2c3c(=O)n(-c4ccccc4Cl)[nH]c3cc(=O)n2C)c1` [GKT137831, 2-(2-chlorophenyl)-4-[3-(dimethylamino)phenyl]-5-methyl-1H-pyrazolo[4,3-c]pyridine-3,6(2H,5H)-dione], for which, in [1], the BDL-induced hepatic fibrosis result is reported as “decreased”. The “Ang II induced GFP fluorescence (collagen α1(I) promoter)” value with colI-GFP HSCs is “suppressed”. Besides, on xanthine oxidase, the Ki was over 100000 nM and the “scavenging of superoxide (O2•−)” value is “inability to scavenge superoxide”. For the same compound, in the assay with HSCs [2] (SOD1mut and WT HSCs), the “Ang II induced NOX1 and NOX4 mRNA expression” value is “suppressed”. In the assay with HSCs [2] (WT and SOD1mu HSCs), the “Ang II induced collagen α1(I) and TIMP-1 mRNA expression” value is on record as “blocked”. For the same compound, the “Rac1 activity after Ang II stimulation” value in the assay on Rac1 is on record as “no effect”. Also, in assay [3] (CCl4 treated SOD1mu and WT mice, 60 mg/kg daily), the “liver inflammation and injury” value was “inhibited to similar lower levels”. Moreover, in [3] (setting [6]), the “hepatic 4-HNE levels” value was “suppressed”, the “hepatic MDA levels (TBARS)” value was “suppressed”, the “hepatic mRNA expression of TNF-α” value is “suppressed” and the “serum ALT levels” value is on record as “reduced”. In addition, the “macrophage infiltration and activation (F4/80, CD68)” value in assay [3] (CCl4 treated mice, 60 mg/kg daily) is “prevented macrophage infiltration and activation”. Besides, in [3] (setting [7]), the “hepatic collagen deposition (Sirius red staining)” value is “reduced”; the “hepatic mRNAs of collagen α1(I), TIMP-1 and TGF-β” value was “reduced the induction of those genes to the same lower levels”. Further, in assay [3] (SOD1mu and WT mice, 60 mg/kg intragastric daily, last half of CCl4 treatment), the CCl4-induced liver fibrosis entry is “attenuated”. Further, the “hepatic α-SMA expression” value in assay [3] (SOD1mu mice, immunohistochemistry and immunoblotting, 60 mg/kg daily) is given as “markedly decreased”. For the same compound, the “NOX4 and NOX1 mRNA expression” value in the assay on activated HSCs (activated SOD1mu HSCs) is “suppressed”. In addition, in the assay on activated HSCs (activated SOD1mu and WT HSCs), the “collagen α1(I) and Acta2 mRNA expression” value is reported as “reduced”. In addition, in assay [4], the “inhibition of neutrophil oxidative burst” value is “did not significantly inhibit”. Moreover, the “Ang II induced ROS generation” value in the assay on HSCs [5] was “suppressed”. In addition, in the assay with 170 different proteins, the “inhibition of off-target proteins” value is “did not show any significant inhibition of any tested target protein”. Besides, the Ki at human Nox1 stood at 110 ± 30 nM.
`c1ccc([I+]c2ccccc2)cc1` [DPI, Diphenyliodonium, reference compound]: the Ki was determined as 50 nM at xanthine oxidase (read-out: Ki on xanthine oxidase) and 70 ± 10 nM at human Nox4.

These data come from paper PMC3493679 (Hepatology (Baltimore, Md.), 2012).
